Experiment: (§1) The drug is tested on Z-004 corresponding to metagenome with ENA study accession number: PRJEB37062 and ENA sample accession number: ERS12561804 for biotransformation under anaerobic condition. The drug concentrations were measured over 9 timepoints collected between 0 and 24 hours of incubation by liquid-chromatography-coupled mass spectrometry (LC–MS)
Conditions: 2 µM
Note: call rule not given here.

Structure (SMILES)	Bacterial Biotransformation
COc1cc2nc(N3CCN(C(=O)C4COc5ccccc5O4)CC3)nc(N)c2cc1OC.CS(=O)(=O)O (stereo not drawn) [DOXAZOSIN MESYLATE]	Compound NOT metabolized
CCOC(=O)[C@H](CCc1ccccc1)N[C@@H](C)C(=O)N1CCC[C@H]1C(=O)O.O=C(O)/C=C\C(=O)O [ENALAPRIL MALEATE]	Compound NOT metabolized

Experiment: (§2) The drug is tested on WLS-350 corresponding to human gut metagenome with ENA study accession number: PRJEB37062 and ENA sample accession number: ERS12561789 for biotransformation under anaerobic condition. The drug concentrations were measured over 9 timepoints collected between 0 and 24 hours of incubation by liquid-chromatography-coupled mass spectrometry (LC–MS)
Conditions: 2 µM

Structure (SMILES)	Bacterial Biotransformation
COc1cc2nc(N3CCN(C(=O)C4COc5ccccc5O4)CC3)nc(N)c2cc1OC.CS(=O)(=O)O (stereo not drawn) [DOXAZOSIN MESYLATE]	Compound metabolized
CCOC(=O)[C@H](CCc1ccccc1)N[C@@H](C)C(=O)N1CCC[C@H]1C(=O)O.O=C(O)/C=C\C(=O)O [ENALAPRIL MALEATE]	Compound NOT metabolized

Experiment: as §1, with “Z-023” for “Z-004”, “ERS12561822” for “ERS12561804”
Conditions: 2 µM

Structure (SMILES)	Bacterial Biotransformation
COc1cc2nc(N3CCN(C(=O)C4COc5ccccc5O4)CC3)nc(N)c2cc1OC.CS(=O)(=O)O (stereo not drawn) [DOXAZOSIN MESYLATE]	Compound metabolized
CCOC(=O)[C@H](CCc1ccccc1)N[C@@H](C)C(=O)N1CCC[C@H]1C(=O)O.O=C(O)/C=C\C(=O)O [ENALAPRIL MALEATE]	Compound metabolized

Experiment: as §2, with “Z-007” for “WLS-350”, “rat” for “human”, “ERS12561807” for “ERS12561789”
Conditions: 2 µM

Structure (SMILES)	Bacterial Biotransformation
COc1cc2nc(N3CCN(C(=O)C4COc5ccccc5O4)CC3)nc(N)c2cc1OC.CS(=O)(=O)O (stereo not drawn) [DOXAZOSIN MESYLATE]	Compound NOT metabolized
CCOC(=O)[C@H](CCc1ccccc1)N[C@@H](C)C(=O)N1CCC[C@H]1C(=O)O.O=C(O)/C=C\C(=O)O [ENALAPRIL MALEATE]	Compound NOT metabolized

Experiment: as §2, with “WLS-073” for “WLS-350”, “ERS12561749” for “ERS12561789”
Conditions: 2 µM

Bacterial Biotransformation	Structure (SMILES)
Compound NOT metabolized	CCOC(=O)[C@H](CCc1ccccc1)N[C@@H](C)C(=O)N1CCC[C@H]1C(=O)O.O=C(O)/C=C\C(=O)O [ENALAPRIL MALEATE]

Conditions: human gut metagenome, 24 h, 2 µM

Structure (SMILES)	Bacterial Biotransformation
COc1cc2nc(N3CCN(C(=O)C4COc5ccccc5O4)CC3)nc(N)c2cc1OC.CS(=O)(=O)O (stereo not drawn) [DOXAZOSIN MESYLATE]	Compound NOT metabolized
CCOC(=O)[C@H](CCc1ccccc1)N[C@@H](C)C(=O)N1CCC[C@H]1C(=O)O.O=C(O)/C=C\C(=O)O [ENALAPRIL MALEATE]	Compound NOT metabolized

Conditions: human gut metagenome, 24 h, 2 µM
Remark: another data set of the same source

Structure (SMILES)	Bacterial Biotransformation
COc1cc2nc(N3CCN(C(=O)C4COc5ccccc5O4)CC3)nc(N)c2cc1OC.CS(=O)(=O)O (stereo not drawn) [DOXAZOSIN MESYLATE]	Compound NOT metabolized
CCOC(=O)[C@H](CCc1ccccc1)N[C@@H](C)C(=O)N1CCC[C@H]1C(=O)O.O=C(O)/C=C\C(=O)O [ENALAPRIL MALEATE]	Compound NOT metabolized

Conditions: human gut metagenome, 24 h, 2 µM
Remark: another data set of the same source

Structure (SMILES)	Bacterial Biotransformation
COc1cc2nc(N3CCN(C(=O)C4COc5ccccc5O4)CC3)nc(N)c2cc1OC.CS(=O)(=O)O (stereo not drawn) [DOXAZOSIN MESYLATE]	Compound NOT metabolized
CCOC(=O)[C@H](CCc1ccccc1)N[C@@H](C)C(=O)N1CCC[C@H]1C(=O)O.O=C(O)/C=C\C(=O)O [ENALAPRIL MALEATE]	Compound NOT metabolized

Experiment: as §2, with “Z-013” for “WLS-350”, “rabbit” for “human”, “ERS12561813” for “ERS12561789”
Conditions: 2 µM

Structure (SMILES)	Bacterial Biotransformation
COc1cc2nc(N3CCN(C(=O)C4COc5ccccc5O4)CC3)nc(N)c2cc1OC.CS(=O)(=O)O (stereo not drawn) [DOXAZOSIN MESYLATE]	Compound metabolized

Experiment: as §2, with “WLS-052” for “WLS-350”, “ERS12561747” for “ERS12561789”
Conditions: 2 µM

Structure (SMILES)	Bacterial Biotransformation
COc1cc2nc(N3CCN(C(=O)C4COc5ccccc5O4)CC3)nc(N)c2cc1OC.CS(=O)(=O)O (stereo not drawn) [DOXAZOSIN MESYLATE]	Compound NOT metabolized
CCOC(=O)[C@H](CCc1ccccc1)N[C@@H](C)C(=O)N1CCC[C@H]1C(=O)O.O=C(O)/C=C\C(=O)O [ENALAPRIL MALEATE]	Compound NOT metabolized

Experiment: as §2, with “Z-022” for “WLS-350”, “mouse” for “human”, “ERS12561821” for “ERS12561789”
Conditions: 2 µM

Structure (SMILES)	Bacterial Biotransformation
COc1cc2nc(N3CCN(C(=O)C4COc5ccccc5O4)CC3)nc(N)c2cc1OC.CS(=O)(=O)O (stereo not drawn) [DOXAZOSIN MESYLATE]	Compound metabolized
CCOC(=O)[C@H](CCc1ccccc1)N[C@@H](C)C(=O)N1CCC[C@H]1C(=O)O.O=C(O)/C=C\C(=O)O [ENALAPRIL MALEATE]	Compound NOT metabolized

Conditions: human gut metagenome, 24 h, 2 µM
Remark: another data set of the same source

Structure (SMILES)	Bacterial Biotransformation
COc1cc2nc(N3CCN(C(=O)C4COc5ccccc5O4)CC3)nc(N)c2cc1OC.CS(=O)(=O)O (stereo not drawn) [DOXAZOSIN MESYLATE]	Compound NOT metabolized
CCOC(=O)[C@H](CCc1ccccc1)N[C@@H](C)C(=O)N1CCC[C@H]1C(=O)O.O=C(O)/C=C\C(=O)O [ENALAPRIL MALEATE]	Compound NOT metabolized

Experiment: as §2, with “WLS-010” for “WLS-350”, “ERS12561743” for “ERS12561789”
Conditions: 2 µM

Structure (SMILES)	Bacterial Biotransformation
COc1cc2nc(N3CCN(C(=O)C4COc5ccccc5O4)CC3)nc(N)c2cc1OC.CS(=O)(=O)O (stereo not drawn) [DOXAZOSIN MESYLATE]	Compound metabolized
CCOC(=O)[C@H](CCc1ccccc1)N[C@@H](C)C(=O)N1CCC[C@H]1C(=O)O.O=C(O)/C=C\C(=O)O [ENALAPRIL MALEATE]	Compound NOT metabolized

Conditions: human gut metagenome, 24 h, 2 µM
Remark: another data set of the same source

Structure (SMILES)	Bacterial Biotransformation
COc1cc2nc(N3CCN(C(=O)C4COc5ccccc5O4)CC3)nc(N)c2cc1OC.CS(=O)(=O)O (stereo not drawn) [DOXAZOSIN MESYLATE]	Compound metabolized
CCOC(=O)[C@H](CCc1ccccc1)N[C@@H](C)C(=O)N1CCC[C@H]1C(=O)O.O=C(O)/C=C\C(=O)O [ENALAPRIL MALEATE]	Compound NOT metabolized

Conditions: human gut metagenome, 24 h, 2 µM
Remark: another data set of the same source

Structure (SMILES)	Bacterial Biotransformation
COc1cc2nc(N3CCN(C(=O)C4COc5ccccc5O4)CC3)nc(N)c2cc1OC.CS(=O)(=O)O (stereo not drawn) [DOXAZOSIN MESYLATE]	Compound metabolized
CCOC(=O)[C@H](CCc1ccccc1)N[C@@H](C)C(=O)N1CCC[C@H]1C(=O)O.O=C(O)/C=C\C(=O)O [ENALAPRIL MALEATE]	Compound NOT metabolized

Conditions: human gut metagenome, 24 h, 2 µM
Remark: another data set of the same source

Structure (SMILES)	Bacterial Biotransformation
COc1cc2nc(N3CCN(C(=O)C4COc5ccccc5O4)CC3)nc(N)c2cc1OC.CS(=O)(=O)O (stereo not drawn) [DOXAZOSIN MESYLATE]	Compound NOT metabolized
CCOC(=O)[C@H](CCc1ccccc1)N[C@@H](C)C(=O)N1CCC[C@H]1C(=O)O.O=C(O)/C=C\C(=O)O [ENALAPRIL MALEATE]	Compound NOT metabolized

Experiment: as §2, with “Z-006” for “WLS-350”, “mouse” for “human”, “ERS12561806” for “ERS12561789”
Conditions: 2 µM

Structure (SMILES)	Bacterial Biotransformation
COc1cc2nc(N3CCN(C(=O)C4COc5ccccc5O4)CC3)nc(N)c2cc1OC.CS(=O)(=O)O (stereo not drawn) [DOXAZOSIN MESYLATE]	Compound NOT metabolized
CCOC(=O)[C@H](CCc1ccccc1)N[C@@H](C)C(=O)N1CCC[C@H]1C(=O)O.O=C(O)/C=C\C(=O)O [ENALAPRIL MALEATE]	Compound NOT metabolized

Experiment: as §2, with “Z-009” for “WLS-350”, “pig” for “human”, “ERS12561809” for “ERS12561789”
Conditions: 2 µM

Structure (SMILES)	Bacterial Biotransformation
COc1cc2nc(N3CCN(C(=O)C4COc5ccccc5O4)CC3)nc(N)c2cc1OC.CS(=O)(=O)O (stereo not drawn) [DOXAZOSIN MESYLATE]	Compound NOT metabolized
CCOC(=O)[C@H](CCc1ccccc1)N[C@@H](C)C(=O)N1CCC[C@H]1C(=O)O.O=C(O)/C=C\C(=O)O [ENALAPRIL MALEATE]	Compound metabolized

Experiment: as §2, with “Z-025” for “WLS-350”, “rabbit” for “human”, “ERS12561824” for “ERS12561789”
Conditions: 2 µM

Structure (SMILES)	Bacterial Biotransformation
COc1cc2nc(N3CCN(C(=O)C4COc5ccccc5O4)CC3)nc(N)c2cc1OC.CS(=O)(=O)O (stereo not drawn) [DOXAZOSIN MESYLATE]	Compound NOT metabolized
CCOC(=O)[C@H](CCc1ccccc1)N[C@@H](C)C(=O)N1CCC[C@H]1C(=O)O.O=C(O)/C=C\C(=O)O [ENALAPRIL MALEATE]	Compound NOT metabolized

Conditions: human gut metagenome, 24 h, 2 µM
Remark: another data set of the same source

Structure (SMILES)	Bacterial Biotransformation
COc1cc2nc(N3CCN(C(=O)C4COc5ccccc5O4)CC3)nc(N)c2cc1OC.CS(=O)(=O)O (stereo not drawn) [DOXAZOSIN MESYLATE]	Compound NOT metabolized
CCOC(=O)[C@H](CCc1ccccc1)N[C@@H](C)C(=O)N1CCC[C@H]1C(=O)O.O=C(O)/C=C\C(=O)O [ENALAPRIL MALEATE]	Compound NOT metabolized
